Assay results from ChEMBL document CHEMBL2057163, “Pyridofuran substituted pyrimidine derivatives as HCV replication (replicase) inhibitors” (Bioorg Med Chem Lett, 2012).

How the values were obtained:
[1] = Clearance in dog at 3 mg/kg, po; format: ADME, organism-based, Canis lupus familiaris; design: dose 3 mg/kg, route oral; settings: in vivo
[2] = AUC in monkey at 3 mg/kg, po; format: ADME, organism-based, Macaca mulatta; design: dose 3 mg/kg, route oral; settings: rhesus monkey, plasma
Liver = assay: Drug uptake in rat liver assessed per gram of tissue at 10 mg/kg, po measured at 6 hrs; format: ADME, organism-based; design: dose 10 mg/kg, route oral; settings: in vivo
[3] = Oral bioavailability in monkey at 3 mg/kg; format: ADME, organism-based, Macaca mulatta; settings: rhesus monkey, in vivo
[4] = Oral bioavailability in rat at 10 mg/kg; format: ADME, organism-based; settings: in vivo
[5] = Half life in rat at 10 mg/kg, po; format: ADME, organism-based; design: dose 10 mg/kg, route oral; settings: in vivo
[6] = AUC in dog at 3 mg/kg, po; format: ADME, organism-based, Canis lupus familiaris; design: dose 3 mg/kg, route oral; settings: plasma
[7] = Half life in dog at 3 mg/kg, po; format: ADME, organism-based, Canis lupus familiaris; design: dose 3 mg/kg, route oral; settings: in vivo
[8] = Clearance in monkey at 3 mg/kg, po; format: ADME, organism-based, Macaca mulatta; design: dose 3 mg/kg, route oral; settings: rhesus monkey, in vivo
[9] = Clearance in rat at 10 mg/kg, po; format: ADME, organism-based; design: dose 10 mg/kg, route oral; settings: in vivo
[10] = Cytotoxicity against human hepatoma cells assessed as inhibition of [14C]thymidine incorporation after 3 days by scintillation proximity assay; format: cell-based
[11] = Oral bioavailability in dog at 3 mg/kg; format: ADME, organism-based, Canis lupus familiaris; settings: in vivo
[12] = Half life in monkey at 3 mg/kg, po; format: ADME, organism-based, Macaca mulatta; design: dose 3 mg/kg, route oral; settings: rhesus monkey, in vivo
[13] = AUC (0 to 6 hrs) in rat at 10 mg/kg, po; format: ADME, organism-based; design: time < 6 hr, dose 10 mg/kg, route oral; settings: plasma
[14] = Selectivity ratio of CC50 for human hepatoma cells by MTS assay to EC50 for Hepatitis C virus 1b con1; format: ADME; settings: read-out: Ratio CC50/EC50
Hepatitis C virus = assay: Antiviral activity against Hepatitis C virus 1b con1 infected in human hepatoma cells assessed as decrease in replicon RNA level after 3 days by RT-PCR analysis; format: functional, organism-based, Hepacivirus hominis; settings: Con1, 72 h
[15] = Cytotoxicity against human hepatoma cells after 3 days by MTS assay; format: cell-based
[16] = Cytotoxicity against human hepatoma cells assessed as decrease in GAPDH RNA level after 3 days by RT-PCR analysis; format: cell-based

SMILES | CL/F [1] [mL/min/kg] | AUC [2] [µM·h] | liver concentration (Liver) [ng/g] | bioavailability [3] [%] | bioavailability [4] [%] | half-life [5] [h] | AUC [6] [µM·h] | half-life [7] [h] | CL/F [8] [mL/min/kg] | CL/F [9] [mL/min/kg] | CC50 at 72 h [10] [µM] | bioavailability [11] [%] | half-life [12] [h] | AUC(0-t) at 6 h [13] [µM·h] | selectivity ratio [14] | EC50 (Hepatitis C virus) [µM] | CC50 at 72 h [15] [µM] | CC50 at 72 h [16] [µM]
CCOc1cc2cc(-c3c(C)nc(NCC4CC4)nc3N[C@@H]3C[C@H](CO)[C@@H](O)[C@H]3O)oc2c(C)n1.Cl | 9.5 | 10.2 | 10200 | 100 | 97 | 3.3 | 1.6 | 2.1 | 16 | 8 | 5 | 15 | 2.8 | 45.5 |  |  |  | 
CNc1nc(Cl)c(-c2cc3cc(OC)nc(C)c3o2)c(N[C@@H]2C[C@H](CO)[C@@H](O)[C@H]2O)n1 |  |  |  |  |  |  |  |  |  |  |  |  |  |  | > 1000 | 0.02 | 25 | > 25
CCc1cc2cc(-c3c(C)nc(NCC(F)(F)F)nc3N[C@@H]3C[C@H](CO)[C@@H](O)[C@H]3O)oc2cn1.Cl | 13 | 5.2 | 1730 | 69 | 39 | 4.2 | 6.4 | 2.1 | 15 | 27 | 4 | 83 | 7 | 5.3 |  |  |  | 
